Measured values: patent US20060140957A1, “Eph/ephrin mediated modulation of cell adhesion and tumour cell metastasis” (priority 2003, published 2006)

Key:
[1] = system: EphA3/A02 malignant melanoma cells; assay: Phosphatase inhibition, anti-EphA3 IP / anti-phosphotyrosine western blot; format: cell-based; settings: increasing amounts
Experimental: (§1) FIG. 8. Phosphatase inhibition triggers EphA3 phosphorylation in LK63 cells • (A) Anti-EphA3 immunoprecipitates from TritonX100 lysates of EphA3/HEK 293, EphA3/AO2 melanoma cells and LK63 leukaemia cells were treated with either crosslinked ephrin-A5 or increasing concentrations of sodium pervanadate as indicated, and analysed by anti-phosphotyrosine western blot. • (B) Anti-EphA3 immunoprecipitates from TritonX100 lysates of vanadate or hydrogen peroxide-treated EphA3/HEK 293 (left panel) and EphA3/AO2 melanoma cells(right panel) were analysed as described in (A).

EphA3/HEK 293 cells [2] = assay: as above; format: cell-based, human; settings: increasing amounts
Experimental: as §1

[3] = system: HEK293 cells expressing w/t EphA3GFP; assay: FLIM/FRET of EphA3 phosphorylation after phosphatase inhibition; format: cell-based, human; settings: 30 min, increasing concentrations
Experimental: (§2) FIG. 7. Pervanadate-induced Eph receptor phosphorylation HEK293 cells, expressing w/t EphA3GFP (A) or 3YF EphA3GFP (B) were incubated with pervanadate (30 min) at indicated concentrations. Fixed cells were examined for FRET as described above. Left, GFP-fluorescence; right, GFP fluorescence lifetime phase maps. Tabulated colour codes indicate GFP lifetimes in ns.
(§3) GFP EphA3 (w/t or mutant) expressing cells were stimulated, fixed, permeabilised and stained with Cy3-conjugated anti phosphotyrosine monoclonal antibody PY72 prior to mounting onto glass slides using Mowiol (Calbiochem). Fluorescence lifetime imaging microscopy (FLIM) sequences were obtained at 80 MHz with an Olympus IX70 microscope (100/1.4 NA oil immersion lens) and analysed as described (Reynolds, Tischer et al. 2003). A 476-nm argon laser line and narrow-band emission filter (HQ510/20; Chroma) were used for GFP, a 100-W mercury arc lamp with high Q Cy3 filter set (excite, HQ545/30; dicroic, Q580LP; emitter, HQ610/75) for Cy3 and Alexa 546. GFP Fluorescence was detected with a dichroic beamsplitter (Q495 LP; Chroma Technology, Brattleboro, Vt.) and narrow-band emission filter. Stimulated FRET was measured in live 293 cells between transiently expressed ephrin-A2GFP and Alexa546 EphA3-Fc.

[4] = system: HEK293 cells expressing 3YF EphA3GFP; assay: as above; format: cell-based, human; settings: 30 min, high concentrations
Experimental: as §2, §3

LK63 cells = assay: Cell morphology on ephrinA5-Fc coated glass coverslips (rhodamin-phalloidin); format: cell-based, human; settings: 4 h
Experimental: FIG. 1. Surface-bound ephrinA5 causes either cell repulsion or cell adhesion of EphA3-positive tumour cells. • (A) EphA3-positive LK63 human pre-B leukemia cells and LiBr melanoma cells were plated onto glass coverslips coated with ephrinA5-Fc (ephrin, 10 μg/ml) or fibronectin (FN, 10 μg/ml). After 4h the cytoskeleton of adherent, fixed cells was stained with rhodamin-phalloidin. Pictures of representative fluorescence images are shown; the second column represents magnified sections of the first. Scale bar: 20 ì m. • (B) LK63 adhesion and LiBr de-adhesion to surface-bound ephrinA5 are dose-dependent. […] After 4-hour incubation, adherent cells, withstanding rigorous washing, were quantitated by XTT assay (A492 absorbance). Cell attachment is expressed as a percentage (mean, S.E. from three independent assays) relative to wells containing most adherent cells; ( ), LK63 and ( ), LiBr cells and ( ), LK63, ( ), LiBr cells with ephrin inhibition (+inh.). • (C) LiBr melanoma cells in matrigel-coated Basement Membrane migration chambers (Becton Dickinson, 5×10^4/well) were exposed to chemoattractant, 3T3 conditioned media (cond. media) or 1.5 ì g/ml pre-clustered ephrin-A5 Fc in the bottom chamber, or with 1.5 ì g/mil pre-clustered ephrin-A5 Fc placed together with cells into the top chamber. […]

LK63 leukaemia cells = assay: Phosphatase inhibition, anti-EphA3 IP / anti-phosphotyrosine western blot; format: cell-based, human; settings: highest concentration tested (1 mM)
Experimental: as §1

EphA3/HEK 293 cells [5] = assay: Cleavage and internalisation of Alexa-labelled protein from protein A Dynabeads; format: cell-based, human; settings: 5 mM, 4 h prior to bead addition
Experimental: (§4) FIG. 6. Eph/ephrin mediated cell-cell repulsion, but not adhesion leads to ephrinA5 cleavage by a metalloprotease. • (A) Alexa ephrinA5-Fc (I, III) or Alexa EphA1 Fc (II) control proteins, conjugated onto protein A-coated Dynabeads were added to cultures of EphA3/HEK 293 cells (I, II) or LK63 cells (III). Cleavage and internalisation of the fluorescent proteins was monitored by confocal microscopy. Selected images of confocal time-lapse experiments (1 frame/min) are shown. Alexa 546 fluorescence is represented in white and outlines cells in panels I, while the cells in panels II, III appear dark-grey or black. • (B) Prior to stimulation (30 min) with Alexa ephrinA5-Fc coated beads (I, II) or with Alexa Fc control beads (III), parallel cultures of EphA3/293 cells were treated for 4 h with 5 mM 1′,10′-O-Phenanthroline (II) or left untreated (I, III). […] Using an EphA3-Fc construct, ephrin-A5 was immuno precipitated from lysates of EphA3/HEK 293 cells or LK63 cells, which had been treated for indicated times with 7.5 ì g/ml of pre-clustered (+X-lnk) or non-clustered (−X-lnk) ephrin-A5 Fc, and analysed for ephrin cleavage by Western blot with anti-ephrinA5 antibody. […]
Eph/ephrin stimulation was analysed in-situ by time-lapse confocal microscopy and immunocytochemistry as described (Lawrenson et al., 2002). […]

EphA3/HEK 293 cells [6] = assay: Biochemical demonstration of ephrin cleavage (Western blot); format: cell-based, human; settings: cells stimulated with clustered ephrin-A5 Fc
Experimental: as §4, with “antibody. To assess cleavage by metalloproteases, parallel cultures were treated with 1′,10′-O-phenanthroline (+OPN) or left untreated.” for “antibody.”

Molecule	EphA3 phosphorylation [1]	EphA3 phosphorylation (EphA3/HEK 293 cells [2])	GFP fluorescent lifetime (receptor phosphorylation) [3]	GFP fluorescent lifetime (receptor phosphorylation) [4]	LK63 morphology on ephrin-coated coverslips under phosphatase inhibition (LK63 cells)	EphA3 phosphorylation compared with EphA3/HEK 293 and EphA3/A02 cells (LK63 leukaemia cells)	effect on ephrin cleavage and internalisation from Alexa ephrin-A5-Fc beads (EphA3/HEK 293 cells [5])	effect on ephrin cleavage (anti-ephrinA5 Western blot) (EphA3/HEK 293 cells [6])
OO [H2O2, hydrogen peroxide]	dose dependent increase in EphA3 phosphorylation	dose dependent increase in EphA3 phosphorylation						
sodium-pervanadate	dose dependent increase in EphA3 phosphorylation	dose dependent increase in EphA3 phosphorylation	dramatic dose-dependent decrease in the GFP fluorescent lifetime	retained their GFP lifetime	lose their characteristic extensions and appear rounded	significantly lower		
c1cnc2c(c1)ccc1cccnc12 [1′,10′-O-Phenanthroline]							completely abrogated ephrin cleavage and internalisation	significantly-reduced ephrin cleavage
